In this assay the target is Protein arginine N-methyltransferase 5 (Homo sapiens, UniProt O14744). The experiment in a line: Biochemical Assay : The 6 μL reactions are run in Greiner brand black 384-well low volume assay plates. All reactions contained assay buffer (phosphate buffered saline, 0.01% (v/v) Tween-20, 0.01% (w/v) albumin from chicken egg white, 1 mM Dithiothreitol, 1 μM peptide substrate, 1 μM S-Adenosyl methionine, and 15 ng/reaction enzyme, with the enzyme being omitted from negative control reactions. Compounds were added in a volume of 100 nL from dilution series prepared in DMSO, positive and negative control reactions receiving the same volume DMSO without compound. The plates were sealed with adhesive seals and incubated for 4 hours at 37 degree Celsius. Reaction progress was measured using the Transcreener EPIGEN methyltransferase assay (BellBrook Labs, Madison, Wis.) as recommended by the manufacturer. To each reaction 2 μL detection mix were added, containing coupling enzymes, fluorescence polarisation tracer, and AMP antibody. Plates were incubated for 90 minutes before being read on a PerkinElmer EnVision™ plate reader in fluorescence polarisation mode. On the technique in general: Fluorescence polarisation rises when a labelled molecule tumbles more slowly, as on binding a larger partner.
Chain of Protein arginine N-methyltransferase 5 (O14744 whole entry): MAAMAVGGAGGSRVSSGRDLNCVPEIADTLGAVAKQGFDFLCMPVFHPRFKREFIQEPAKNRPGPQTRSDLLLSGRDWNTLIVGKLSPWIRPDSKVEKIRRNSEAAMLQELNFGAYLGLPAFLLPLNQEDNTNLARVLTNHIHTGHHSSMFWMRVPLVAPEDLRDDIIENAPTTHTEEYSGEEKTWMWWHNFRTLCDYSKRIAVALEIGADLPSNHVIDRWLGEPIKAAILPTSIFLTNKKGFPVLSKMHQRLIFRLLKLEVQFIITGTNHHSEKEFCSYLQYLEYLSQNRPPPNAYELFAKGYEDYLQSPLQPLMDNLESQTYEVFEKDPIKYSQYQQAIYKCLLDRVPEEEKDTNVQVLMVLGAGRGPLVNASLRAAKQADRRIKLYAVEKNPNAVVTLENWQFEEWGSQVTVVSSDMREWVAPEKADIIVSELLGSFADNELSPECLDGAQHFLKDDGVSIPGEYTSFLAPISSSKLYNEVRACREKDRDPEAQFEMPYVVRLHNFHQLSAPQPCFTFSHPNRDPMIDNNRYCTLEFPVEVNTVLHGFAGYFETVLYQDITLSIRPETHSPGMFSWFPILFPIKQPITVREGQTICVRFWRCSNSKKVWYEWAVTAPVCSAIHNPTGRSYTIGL

Turning to `CC(=O)N1CCC(Nc2nccc(C(=O)NC[C@@H](O)CNC3CC4C=CC=CC4C3)c2C)CC1` (stereo partly specified), the IC50 – broadly, the concentration that gives 50% inhibition – was determined as 105 nM.

(Values after ChEMBL document CHEMBL5727909, “Pyridine derivatives and their use in the treatment of cancer and hemoglobinopathies” (2020).)
